# Assays:
# [1] = Elevated plus maze, betulinic acid vs structurally related compounds (Example 11); assay type: in vivo
# Text: This example compares the anxiolytic activity of betulinic acid and some other structurally related compounds. Results are illustrated in FIG. 7.
# Sprague-Dawley rats = assay: Rat social interaction paradigm; assay type: in vivo; conditions: 0.5 mg/kg i.p.
# Text: The rat social interaction paradigm takes advantage of rats' natural behaviour in novel situations. The more ‘anxious’ the animals are, the less likely they are engage in social interaction with the cohort. Anxiolytic drugs typically increase the amount of time rodents spend socially interacting with one another. (Pile, S. E., (1980). The use of social interaction as a method for detecting anxiolytic activity of chlor-diazepoxide-like drugs. In Current Protocols in Neuroscience (pp. 8.3.3-8.3.4), John-Wiley & Sons).
# The social-interaction (SI) test arena constituted of a 60×60 cm white Plexiglas floor, enclosed by 35-cm high walls of the same material. The arena was surrounded by black curtain, and a closed circuit camera was positioned above the setup, to feed live video signals to the experimenter seated in a separate room, for behavioral assessment and recording.
# Each rat was placed alone in the SI box for 7.5 min daily for 2 days, in order to familiarize the animals with the test environment. Animals were paired according to their body weights (less than 10 g difference) and each pair was randomly assigned to one of the treatment groups. Rats received either betulinic acid 0.5 mg/kg i.p., betulinic acid methyl ester (methyl betulinate) 0.5 mg/kg i.p., or peanut oil only (control). Drugs were injected (i.p.) 60 min prior to testing. Tests were carried out at three intervals, 1 h, 2.5 h and 4 h after injection. Each pair was tested at the 1-h interval, then new pairs from within the same drug group were formed for the 2.5-h interval and then again at the 4-h interval (new pairs were formed for each test interval, to control for the potential confounding effect partner familiarity). […] The behaviors scored included the amount of time the pairs spent interacting together (sniffing, grooming and chasing) as well as the number of times the animals initiated contact.
# Sprague Dawley rats = assay: Locomotor activity after chronic administration; assay type: in vivo, rat; conditions: chronic 0.5 mg/kg daily orally, one night 5 p.m. to 7 a.m. (FIG. 11)
# Protocol: Test animals and drug treatments were as in Example 14. Locomotor activity was recorded for one night (5 p.m. to 7 a.m. the following morning) in the control as well as in the betulinic acid and methyl ester of betulinic acid exposed groups. Locomotor activity was monitored using infrared sensors located on the roof of the animals' cage. Eight independent sensors monitored activity of animals according to the number of quadrants traversed.
# [2] = Weight gain over chronic treatment; assay type: in vivo, rat; conditions: rats, chronic 0.5 mg/kg daily orally (FIG. 12)
# Solubility = assay type: physicochemical; conditions: in water and in methanol
structure (smiles),measurement,setting,value
CC1(C)CC[C@]2(C)CC[C@]3(C)C(=CC[C@@H]4[C@@]5(C)CC[C@H](O)C(C)(C)[C@@H]5CC[C@]43C)[C@@H]2C1 [beta-amyrin],anxiolytic activity on the elevated plus maze paradigm,[1]; 5 mg/kg (FIG. 7),"neither beta-amyrin (5 mg/kg) nor oleanolic acid (0.5 mg/kg), two compounds structurally related to betulinic acid, displayed any anxiolytic activity"
"C=C(C)[C@@H]1CC[C@]2(C(=O)OC)CC[C@]3(C)[C@H](CC[C@@H]4[C@@]5(C)CC[C@H](O)C(C)(C)[C@@H]5CC[C@]43C)[C@@H]12 [betulinic acid methyl ester, Methyl betulinate]",frequency of initiated contact,Sprague-Dawley rats,not significant
same,amount of social interaction (interaction time) compared to the control group,"Sprague-Dawley rats; data collapsed across 1 h, 2.5 h and 4 h (FIG. 8)",significantly increased the amount of social interaction
same,increase of social interaction compared to betulinic acid,Sprague-Dawley rats; p<0.05,significantly more effective at increasing social interaction than betulinic acid
same,adverse effect on locomotor activity or pattern,Sprague Dawley rats,neither betulinic acid nor the methyl ester of betulinic acid had an adverse effect on locomotor activity or pattern
same,effect of chronic drug treatment on weight gain,[2],did not seem to affect weight gain in a significant manner
CC1(C)CC[C@]2(C(=O)O)CC[C@]3(C)C(=CC[C@@H]4[C@@]5(C)CC[C@H](O)C(C)(C)[C@@H]5CC[C@]43C)[C@@H]2C1 [oleanolic acid],anxiolytic activity on the elevated plus maze paradigm,[1]; 0.5 mg/kg,"neither beta-amyrin (5 mg/kg) nor oleanolic acid (0.5 mg/kg), two compounds structurally related to betulinic acid, displayed any anxiolytic activity"
C=C(C)C1CCC2(C(=O)[O-])CCC3(C)C(CCC4C5(C)CCC(O)C(C)(C)C5CCC43C)C12.[Na+] (centres unmarked) [sodium salt of betulinic acid],solubility relative to pure betulinic acid,Solubility,greater in water and in methanol than pure betulinic acid

# Source: US20130065868A1, “ANXIOYTIC MARCGRAVIACEAE COMPOSITIONS CONTAINING BETULINIC ACID, BETULINIC ACID DERIVATIVES, AND METHODS” (UNIVERSITY OF OTTAWA, priority 2002, published 2013)
